Test results reported in article PMC10460728 (Journal of Pharmacokinetics and Pharmacodynamics, 2023).
Like-named read-outs stand apart in the source and are kept apart here.

Legend:
CYP3A and P-gp = tested on: CYP3A and P-gp; parameters: method as in PMID 33030266; conditions: assumed in model development, verified with clinical DDI studies; cited from earlier work
P-gp and CYP3A = conditions: apixaban; cited from earlier work
P-gp [1] = conditions: cited from earlier work
CYP2B6 = CYP2B6 mRNA induction in cultured human hepatocytes
CYP1A2 = CYP1A2 mRNA induction in cultured human hepatocytes
Experimental: (§1) Hepatocytes were cultured according to previously described methods [8]. […] Single-stranded cDNA was prepared from RNA with the RT Master Mix using the AB 7900HT Fast Real Time PCR System thermocycling program. Quantitative RT-PCR was carried out in triplicate. Relative quantification measures the change in mRNA expression in a test sample relative to that in a control sample (e.g., DMSO). This method assumes that the efficiency of the target amplification and the efficiency of the endogenous control amplification are approximately equal.
(§2) The maximal fold induction (Indmax) and half concentration to reach Indmax (IndC50) were determined based on the following equation: Foldinduction=1+Indmax-1×Ct/IndC50+Ct where Ct is the test drug concentration.

CYP2C19 = CYP2C19 mRNA induction in cultured human hepatocytes
Experimental: as §1, §2

P-gp [2] = assay: P-gp mRNA induction in cultured human hepatocytes; type: cell-based
CYP2C8 = CYP2C8 mRNA induction in cultured human hepatocytes
Experimental: as §1, §2

CYP2C9 = CYP2C9 mRNA induction in cultured human hepatocytes
Experimental: as §1, §2

P-gp (human MDR1) = P-gp (human MDR1) (Homo sapiens, UniProt P08183); assay: In vitro P-gp inhibition: 3H-digoxin permeation across control and MDR1-expressing LLC-PK1 cell monolayers; conditions: for Control cells Papp ratio / Corrected Papp ratio / MDR1-expressing cells Papp ratio: 3H-digoxin 1 µmol/L
Chain of P-gp (human MDR1) (P08183 whole entry): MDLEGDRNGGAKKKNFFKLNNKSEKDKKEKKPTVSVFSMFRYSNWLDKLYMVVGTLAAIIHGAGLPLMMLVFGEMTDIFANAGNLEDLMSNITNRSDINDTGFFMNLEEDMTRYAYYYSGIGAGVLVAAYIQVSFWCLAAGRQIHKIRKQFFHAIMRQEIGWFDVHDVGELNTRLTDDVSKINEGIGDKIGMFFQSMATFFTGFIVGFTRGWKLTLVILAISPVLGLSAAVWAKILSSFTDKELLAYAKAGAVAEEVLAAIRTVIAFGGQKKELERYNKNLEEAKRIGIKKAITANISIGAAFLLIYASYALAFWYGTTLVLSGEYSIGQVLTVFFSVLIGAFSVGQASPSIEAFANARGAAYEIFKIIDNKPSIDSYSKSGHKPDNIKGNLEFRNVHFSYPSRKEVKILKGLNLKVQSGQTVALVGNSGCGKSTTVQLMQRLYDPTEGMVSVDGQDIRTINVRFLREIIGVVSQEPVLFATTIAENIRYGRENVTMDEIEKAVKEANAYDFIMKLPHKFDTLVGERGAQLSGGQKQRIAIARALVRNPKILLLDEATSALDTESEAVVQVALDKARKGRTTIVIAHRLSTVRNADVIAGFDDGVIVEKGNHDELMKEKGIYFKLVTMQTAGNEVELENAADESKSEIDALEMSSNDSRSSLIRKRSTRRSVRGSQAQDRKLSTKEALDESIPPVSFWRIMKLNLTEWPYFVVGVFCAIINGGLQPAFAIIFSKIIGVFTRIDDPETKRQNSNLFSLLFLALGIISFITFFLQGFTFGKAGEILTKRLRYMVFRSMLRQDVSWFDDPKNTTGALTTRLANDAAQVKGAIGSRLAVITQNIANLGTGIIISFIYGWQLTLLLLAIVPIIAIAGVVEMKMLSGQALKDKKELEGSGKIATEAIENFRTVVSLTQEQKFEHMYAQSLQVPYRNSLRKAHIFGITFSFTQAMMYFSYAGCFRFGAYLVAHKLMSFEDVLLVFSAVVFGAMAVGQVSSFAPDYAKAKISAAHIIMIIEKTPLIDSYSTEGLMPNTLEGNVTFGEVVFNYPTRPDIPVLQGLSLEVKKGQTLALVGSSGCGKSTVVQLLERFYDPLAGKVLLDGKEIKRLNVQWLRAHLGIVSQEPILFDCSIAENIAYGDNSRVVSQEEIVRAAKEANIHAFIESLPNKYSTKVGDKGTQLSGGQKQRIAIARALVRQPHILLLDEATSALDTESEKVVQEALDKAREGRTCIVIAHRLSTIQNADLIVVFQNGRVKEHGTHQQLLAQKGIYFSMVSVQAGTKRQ
Experimental: MDR1-expressing cells (porcine kidney epithelial LLC-PK1 cells transfected with human MDR1 cDNA) was used. The MDR1-expressing cells were seeded at a density of 4 × 10^4 cells/insert in plates and were incubated in a CO2 incubator (37 °C, CO2: 5%) for 7 to 9 days to prepare cell monolayers. […] After incubation for 4 h at 37 °C, a 70-μL aliquot of the incubation solutions was collected as the analytical sample from the opposite compartment of that spiked with test solutions (receiver compartment). The collected samples were immediately combined with 10 mL of scintillator, and the radioactivity was counted using the LSC. Permeability coefficient (Papp) of ^3H-digoxin was calculated using the following equation: Pappcm/sec=[dQ/dt]/A/C0 where dQ/dt is the transport rate (dpm/sec); A is the membrane area (cm^2); C0 is the initial concentration (dpm/mL). The ratio of permeability coefficient (Papp ratio) was calculated from the basal to apical Papp and apical to basal Papp according to the following equation: Pappratio=BasaltoapicalPapp/ApicaltobasalPapp
Furthermore, the ratios of the Papp ratios in MDR1-expressing cells to the Papp ratios in control cells were calculated as corrected Papp ratio according to the following equation: CorrectedPappratio=PappratiooftheMDR1expressingcells/Pappratioofthecontrolcells
The % of control was calculated from the corrected Papp ratio according to the following equation: \% \,of\,control=CorrectedPappratio\,in\,the\,absence\,or\,presence\,of\,inhibitors/CorrectedPappratio\,in\,the\,absence\,of\,inhibitors×100

[3] = multiple 160 mg doses of enzalutamide, mean (SD)
[4] = multiple oral 160 mg enzalutamide
[5] = 100 µmol/L (enzalutamide, M2: two lots of hepatocyte)

Experimental for CYP3A4: as §1, §2

COc1ccc(-n2nc(C(N)=O)c3c2C(=O)N(c2ccc(N4CCCCC4=O)cc2)CC3)cc1 [Apixaban, apixaban]
Contribution of CYP3A to hepatic metabolism (CYP3A and P-gp): 42% | Decrease in AUC by rifampicin (P-gp and CYP3A): 54%

C[C@H]1O[C@@H](O[C@H]2[C@@H](O)C[C@H](O[C@H]3[C@@H](O)C[C@H](O[C@H]4CC[C@@]5(C)[C@H](CC[C@@H]6[C@@H]5C[C@@H](O)[C@]5(C)[C@@H](C7=CC(=O)OC7)CC[C@]65O)C4)O[C@@H]3C)O[C@@H]2C)C[C@H](O)[C@@H]1O [Digoxin, digoxin]
AUC ratio, observed (P-gp [1]; geometric mean ratio (90% CI)): 1.29 (1.21–1.38) | Cmax ratio, observed (P-gp [1]; geometric mean ratio (90% CI)): 1.17 (1.06–1.29) | AUC without enzalutamide, observed (P-gp [1]; mean (SD)): 22.1 (4.10) ng·h/mL | Cmax without enzalutamide, observed (P-gp [1]; mean (SD)): 1.45 (0.314) ng/mL | AUC with enzalutamide, observed (P-gp [1]; [3]): 28.7 (5.79) ng·h/mL | Cmax with enzalutamide, observed (P-gp [1]; [3]): 1.69 (0.384) ng/mL | Increase in digoxin AUC by enzalutamide (P-gp [1]; [4]): 29% | Increase in digoxin Cmax by enzalutamide (P-gp [1]; [4]): 17%

CC1(C)C(=O)N(c2ccc(C#N)c(C(F)(F)F)c2)C(=S)N1c1ccc(C(=O)O)c(F)c1 [M1]
Fold increase CYP2B6 mRNA (CYP2B6; 1 µmol/L): 0.724 ± 0.316 fold | Fold increase CYP2B6 mRNA (CYP2B6; 10 µmol/L): 1.03 ± 0.43 fold | Fold increase CYP2B6 mRNA (CYP2B6; [5]): 0.848 ± 0.337 fold | Fold increase CYP3A4 mRNA (CYP3A4; 1 µmol/L): 0.832 ± 0.417 fold | Fold increase CYP3A4 mRNA (CYP3A4; 10 µmol/L): 1.17 ± 0.46 fold | Fold increase CYP3A4 mRNA (CYP3A4; hepatocytes): 1.83 ± 0.98 fold | Fold increase CYP1A2 mRNA (CYP1A2; 1 µmol/L): 0.697 ± 0.260 fold | Fold increase CYP1A2 mRNA (CYP1A2; 10 µmol/L): 0.883 ± 0.303 fold | Fold increase CYP1A2 mRNA (CYP1A2; [5]): 1.01 ± 0.59 fold | Fold increase CYP2C19 mRNA (CYP2C19; 1 µmol/L): 0.855 ± 0.246 fold | Fold increase CYP2C19 mRNA (CYP2C19; 10 µmol/L): 1.06 ± 0.10 fold | Fold increase CYP2C19 mRNA (CYP2C19; [5]): 1.55 ± 0.80 fold | Fold increase P-gp mRNA (P-gp [2]; 1 µmol/L): 0.885 ± 0.553 fold | Fold increase P-gp mRNA (P-gp [2]; 10 µmol/L): 1.46 ± 0.79 fold | Fold increase P-gp mRNA (P-gp [2]; [5]): 1.32 ± 0.25 fold | Fold increase CYP2C8 mRNA (CYP2C8; 1 µmol/L): 1.11 ± 0.53 fold | Fold increase CYP2C8 mRNA (CYP2C8; 10 µmol/L): 1.44 ± 0.50 fold | Fold increase CYP2C8 mRNA (CYP2C8; [5]): 2.35 ± 1.66 fold | Fold increase CYP2C9 mRNA (CYP2C9; 1 µmol/L): 0.853 ± 0.361 fold | Fold increase CYP2C9 mRNA (CYP2C9; 10 µmol/L): 0.888 ± 0.172 fold | Fold increase CYP2C9 mRNA (CYP2C9; [5]): 1.52 ± 0.63 fold | Control cells Papp ratio (P-gp (human MDR1); additive 0.3 µmol/L): 1.3 | Corrected Papp ratio (P-gp (human MDR1); additive 0.3 µmol/L): 13.2 | MDR1-expressing cells Papp ratio (P-gp (human MDR1); additive 0.3 µmol/L): 17.1 | Control cells Papp ratio (P-gp (human MDR1); additive 1 µmol/L): 1.2 | Corrected Papp ratio (P-gp (human MDR1); additive 1 µmol/L): 17.4 | MDR1-expressing cells Papp ratio (P-gp (human MDR1); additive 1 µmol/L): 20.9 | Control cells Papp ratio (P-gp (human MDR1); additive 3 µmol/L): 1.0 | Corrected Papp ratio (P-gp (human MDR1); additive 3 µmol/L): 19.2 | MDR1-expressing cells Papp ratio (P-gp (human MDR1); additive 3 µmol/L): 19.2 | Control cells Papp ratio (P-gp (human MDR1); additive 10 µmol/L): 1.0 | Corrected Papp ratio (P-gp (human MDR1); additive 10 µmol/L): 21.7 | MDR1-expressing cells Papp ratio (P-gp (human MDR1); additive 10 µmol/L): 21.7 | Control cells Papp ratio (P-gp (human MDR1); additive 30 µmol/L): 1.0 | Corrected Papp ratio (P-gp (human MDR1); additive 30 µmol/L): 18.3 | MDR1-expressing cells Papp ratio (P-gp (human MDR1); additive 30 µmol/L): 18.3 | Control cells Papp ratio (P-gp (human MDR1); additive 80 µmol/L): 1.0 | Corrected Papp ratio (P-gp (human MDR1); additive 80 µmol/L): 21.3 | MDR1-expressing cells Papp ratio (P-gp (human MDR1); additive 80 µmol/L): 21.3 | Inhibition of P-gp-mediated 3H-digoxin transport (P-gp (human MDR1); result in words): did not inhibit
